Source: PMC8333062, “Chemical tools for epichaperome-mediated interactome dysfunctions of the central nervous system” (Nature Communications, 2021)
Several values for one entry are separate records, joined by “and”; a condition that tells them apart may be missing. Equal values may be shown once. Read-outs that look alike come from different tables or passages of the source.

What was measured:
[1] = molecular target: HSP90 pools in JNPL3 (AD transgenic) mouse brain lysate; assay: Fluorescence polarization (FP) competitive binding, cy3B-GM; conditions: displacement of cy3B-GM, 24 h, 4 °C; mean±SD, n=3; read-out: FP relative affinity
[2] = in vitro; conditions: PAMPA, pH 7.4
[3] = PAMPA-BBB permeability; conditions: for PAMPA_BBB: Supplementary Table 6; for Papp at 16 h, 50 μM: pig, PAMPA, pH 7.4
[4] = 10 µM PU-HZ151, 60 min
Protocol: PU-HZ151 (1 and 10 µM) was incubated with human, CD-1 mouse, Sprague Dawley rat, and beagle dog liver microsomes (0.5 mg protein/ml) and appropriate cofactors (2.5 mM NADPH and 3.3 mM MgCl2) in 100 mM phosphate buffer, pH 7.4, in a 37 °C shaking water bath. The incubation contained a final organic solvent concentration of 0.1% DMSO. Reactions were started with the addition of NADPH/magnesium chloride mix and stopped by removing 100 µL aliquots at selected time points (15, 30, and 60 min) and mixing with 200 µl of acetonitrile containing 100 ng/ml haloperidol (internal standard). […] Experimental controls consisted of: a) incubation with 1 or 5 µM propranolol as a positive control for metabolism, and b) incubation of 1 and 10 µM PU-HZ151 with heat-inactivated microsomes (0.5 mg protein mL^−1) for 0 and 60 min. All samples were assayed in duplicate. To determine metabolic stability of PU-HZ151, the percent remaining at each time point was calculated by dividing the peak area ratio of PU-HZ151 /internal standard at each time point by the mean peak area ratio at 0 min, multiplied by 100.
In order to detect and characterize metabolites of PU-HZ151 formed in selected microsomal incubation samples, the following procedures were used to prepare the samples: (1) microsomal incubation samples generated in the metabolic stability experiments (1 and 10 µM PU-HZ151, duplicate replicates per timepoint) were initially processed by addition of 2 parts acetonitrile containing the internal standard haloperidol, to 1 part sample, followed by vortexing, centrifugation, and transfer of the supernatant to a 1.5 mL microcentrifuge tube. Samples were stored at −80 °C prior to analysis for metabolites. (2) Samples were thawed to room temperature, vortexed, centrifuged, and a volume of the supernatant diluted 1:1 with 5% acetonitrile, to reduce the percent acetonitrile in the final sample. Samples were then transferred to HPLC vials with glass inserts for subsequent LC-MS analysis.
Samples were analyzed by LC-MS using positive-ion electrospray ionization and reverse-phase chromatography in full-scan mode with MS/MS product-ion spectra generated for detected metabolite masses. This was performed using the MS2 scan mode of the G6410B mass spectrometer to produce MS/MS product-ion spectra for masses detected at sufficient intensities. Chromatography was performed using a ZORBAX Eclipse XDB-C18 4.6 × 50 mm, 5 µm, column, with gradient elution at 1 mL min^−1. Mobile phase was comprised of A = MilliQ Water with 0.1% formic acid, B = acetonitrile.

[5] = Pharmacokinetic studies in mice (LC-MS/MS); type: in vivo, B6D2F1 mice; parameters: Plasma level: unit: uM; conditions: individual animals
Protocol: Blood and brain tissue were collected following euthanasia at the scheduled time points of 5, 30 min, 1, 4, and 8 h following iv dosing and of 30 min, 1, 4, and 8 h following po dosing. Brain samples were immediately flash frozen in liquid nitrogen following collection and stored at −80 °C until analysis. Blood samples were collected into an EDTA tube by heart puncture and centrifuged at 17,000×g for 5 min at 4 °C to separate the plasma and immediately frozen on dry ice and stored at −80 °C until analysis. […] This was homogenized, extracted with methylene chloride, and evaporated on a GeneVac. […] Drug concentration (μM) in the brain was then modified to account for an average water space of 0.8 mL g^−1.

**Q.** For `Nc1ncnc2c1nc(Sc1cc3c(cc1I)OCC3)n2CCCBr` [Compound 40], which EC50 [1] is on record?
**A.** 8 ± 0.4 nM

**Q.** What about the Papp at 16 h, 50 μM [2] of the same compound?
**A.** 7.7 ± 0.8 ×10⁻⁶ cm/s

**Q.** What about the PAMPA_BBB [3] of the same compound?
**A.** 7.7±0.8

**Q.** With `C=Cc1cc2c(cc1Cc1nc3c(N)nc(F)nc3n1CCCNC(C)C)OCO2` [Compound 22] as the compound, how does the EC50 [1] read?
**A.** 146 ± 9 nM

**Q.** And the Papp at 16 h, 50 μM [2]?
**A.** 5.6 ± 0.2 ×10⁻⁶ cm/s

**Q.** What about the PAMPA_BBB [3] of the same compound?
**A.** 5.6±0.2

**Q.** Which “% Peak area of metabolite” value ([4]; replicate 1) does the source give for `NCCn1c(Sc2cc(O)c(O)cc2I)nc2c(N)ncnc21` [Compound M5] here?
**A.** 2.5%

**Q.** What about the “% Peak area of metabolite” value ([4]; replicate 2) of the same compound?
**A.** 2.9%

**Q.** With `CC(C)(C)CNCCn1c(Sc2cc(O)c(O)cc2I)nc2c(N)ncnc21` [Compound M2] as the compound, how does the “% Peak area of metabolite” value ([4]; replicate 1) read?
**A.** 13.0%

**Q.** And the “% Peak area of metabolite” value ([4]; replicate 2)?
**A.** 9.0%

**Q.** And the Brain level ([5]; time 5 min)?
**A.** 0 (3×) and 0.75 and 0.71

**Q.** What about the Brain level ([5]; time 0.5 h) of the same compound?
**A.** 0.02 and 0.49 and 0 (2×)

**Q.** And the Brain level ([5]; time 1 h)?
**A.** 0 (3×) and 0.04

**Q.** And the Brain level ([5]; time 4 h)?
**A.** 0

**Q.** What about the Brain level ([5]; time 8 h) of the same compound?
**A.** 0

**Q.** And the Plasma level ([5]; time 5 min)?
**A.** 0.04 and 0 (4×)

**Q.** What about the Plasma level ([5]; time 0.5 h) of the same compound?
**A.** 0.02 and 0 (3×)

**Q.** And the Plasma level ([5]; time 1 h)?
**A.** 0 (3×) and 0.03

**Q.** What about the Plasma level ([5]; time 4 h) of the same compound?
**A.** 0

**Q.** And the Plasma level ([5]; time 8 h)?
**A.** 0

**Q.** Which EC50 [1] does the source give for `C#CCN(C)CCCn1c(Cc2cc3c(cc2I)OCO3)nc2c(N)nc(F)nc21` [Compound 64] here?
**A.** 30 ± 6 nM

**Q.** And the PAMPA_BBB [3]?
**A.** 11.1±0.1

**Q.** What about the Papp at 16 h, 50 μM [3] of the same compound?
**A.** 11.1 ×10⁻⁶ cm/s

**Q.** For `CC(C)NCCCn1c(Sc2cc3c(cc2-c2ccc(Br)cc2)OCO3)nc2c(N)ncnc21` [Compound 10], which EC50 [1] is on record?
**A.** 732 ± 13 nM

**Q.** What about the Papp at 16 h, 50 μM [2] of the same compound?
**A.** 11.5 ± 0.4 ×10⁻⁶ cm/s

**Q.** What about the PAMPA_BBB [3] of the same compound?
**A.** 11.5±0.4

**Q.** For `CC(C)(C)NCCCn1c(Cc2cc3c(cc2I)OCO3)nc2c(N)nc(F)nc21` [Compound 59], which EC50 [1] is on record?
**A.** 12.7 ± 1.6 nM

**Q.** And the PAMPA_BBB [3]?
**A.** 13.3±1.4

**Q.** What about the Papp at 16 h, 50 μM [3] of the same compound?
**A.** 13.3 ×10⁻⁶ cm/s

**Q.** For `C[N+](C)(C)CCCn1c(Cc2cc3c(cc2I)OCO3)nc2c(N)nc(F)nc21` [Compound 72], which EC50 [1] is on record?
**A.** 155 ± 5 nM

**Q.** And the PAMPA_BBB [3]?
**A.** 1.3±0.1

**Q.** What does the source list for `CC(C)NCCCn1c(Sc2cc3c(cc2I)CCC3)nc2c(N)ncnc21` [Compound 53]?
**A.** EC50 [1]: 4.5 ± 0.5 nM; PAMPA_BBB [3]: 15.1±0.7; Papp at 16 h, 50 μM [3]: 15.1 ×10⁻⁶ cm/s

**Q.** Which results are given for `CC(C)NCCCn1c(Sc2cc3c(cc2I)OCCO3)nc2c(N)ncnc21` [Compound 28]?
**A.** EC50 [1]: 34.5 ± 1.7 nM; Papp at 16 h, 50 μM [2]: 6.6 ± 0.6 ×10⁻⁶ cm/s; PAMPA_BBB [3]: 6.6±0.6

**Q.** With `Nc1nc(F)nc2c1nc(Cc1cc3c(cc1I)OCO3)n2CCCN1CCCCC1` [Compound 67] as the compound, how does the EC50 [1] read?
**A.** 112 ± 6 nM

**Q.** What about the Papp at 16 h, 50 μM [2] of the same compound?
**A.** 6.9 ± 0.2 ×10⁻⁶ cm/s

**Q.** What about the PAMPA_BBB [3] of the same compound?
**A.** 6.9±0.2

**Q.** With `NCCn1c(Sc2cc3c(cc2I)OCO3)nc2c(N)ncnc21` [Compound M1] as the compound, how does the “% Peak area of metabolite” value ([4]; replicate 1) read?
**A.** 53.0%

**Q.** And the “% Peak area of metabolite” value ([4]; replicate 2)?
**A.** 59.1%

**Q.** What about the Brain level ([5]; time 5 min) of the same compound?
**A.** 0

**Q.** And the Brain level ([5]; time 0.5 h)?
**A.** 0

**Q.** And the Brain level ([5]; time 1 h)?
**A.** 0

**Q.** What about the Brain level ([5]; time 4 h) of the same compound?
**A.** 0

**Q.** What about the Brain level ([5]; time 8 h) of the same compound?
**A.** 0

**Q.** What about the Plasma level ([5]; time 5 min) of the same compound?
**A.** 0

**Q.** What about the Plasma level ([5]; time 0.5 h) of the same compound?
**A.** 0

**Q.** What about the Plasma level ([5]; time 1 h) of the same compound?
**A.** 0

**Q.** And the Plasma level ([5]; time 4 h)?
**A.** 0

**Q.** And the Plasma level ([5]; time 8 h)?
**A.** 0

**Q.** Which results are given for `CCc1cc2c(cc1Cc1nc3c(N)nc(F)nc3n1CCCNC(C)C)OCO2` [Compound 21]?
**A.** EC50 [1]: 813 ± 56 nM; Papp at 16 h, 50 μM [2]: 5.9 ± 0.6 ×10⁻⁶ cm/s; PAMPA_BBB [3]: 5.9±0.6

**Q.** For `C=CCc1cc2c(cc1Cc1nc3c(N)nc(F)nc3n1CCCNC(C)C)OCO2` [Compound 23], which EC50 [1] is on record?
**A.** > 5000 nM

**Q.** And the Papp at 16 h, 50 μM [2]?
**A.** 4.6 ± 0.6 ×10⁻⁶ cm/s

**Q.** And the PAMPA_BBB [3]?
**A.** 4.6±0.6

**Q.** For `CC(C)NCCCn1c(Sc2cc3c(cc2-c2ccccc2)OCO3)nc2c(N)ncnc21` [Compound 9], which PAMPA_BBB (PAMPA) is on record?
**A.** 9.9±0.5

**Q.** What about the PAMPA-BBB (pH 7.4) of the same compound?
**A.** 9.9±0.5 10-6 cms-1

**Q.** What about the EC50 [1] of the same compound?
**A.** 270 ± 10 nM
